From patent publication US20240208963A1, “CRYSTALLINE MELANOCORTIN SUBTYPE-2 RECEPTOR (MC2R) ANTAGONIST” (Crinetics Pharmaceuticals, Inc., priority 2022, published 2024)
Converted amounts (≈) assume the structure as drawn. “Also recorded” adds a separate entry of the source. Where a name gives a salt, the structure may show the parent alone. Read-outs that look alike come from different tables or passages of the source. Marks after values point to notes of the source that are not given here.

What was measured:
[1] = Salt screening XRPD stages: drying and overnight humidity exposure; settings: for Form stability upon drying (XRPD): dried under vacuum at 50° C. for at least 3 h
Description: XRPD analysis is typically done in three stages: 1) Wet: XRPD of the wet cake is done for all samples whenever solids appropriate for sampling were observed. 2) Dry: Unique solids are then left on XRPD plates and dried under vacuum at 50° C. for at least 3 h. XRPD of unique dry solids are then collected. 3) Humid: Solids are then exposed to >95% relative humidity overnight and XRPD on resulting solids is collected. The humid environment is generated by placing a beaker of saturated potassium sulfate in water in a sealed container. This procedure is not carried out for any amorphous solids obtained. All XRPD patterns are compared to counter ion XRPD patterns and known free molecule patterns.
A qualitive humidity exposure test was performed by exposing approximately 10 mg of the maleate to 80% RH overnight.

[2] = Solubility of solid state forms in solvents (gravimetric or solvent addition); assay type: physicochemical
Description: The solubility of certain solid state forms of Compound I was determined in various solvents by either gravimetric solubility or solvent addition.
About 25 mg of compound was weighed into vials. Approximately 5 vol. (0.125 mL) of solvent was added to the solids and the mixtures stirred at the designated temperature (RT or 50° C.). Solutions were noted and an additional 0.125 mL of solvent was added to the slurries. […] If a thicker slurry was noted, 0.25 mL of solvent was added (total volume 0.5 mL). If a thick slurry was again noted, an additional 0.25 mL of solvent was added (total volume 0.75 mL). After stirring for 2 days, the slurries were centrifuged, the supernatant was collected into preweighed vials, and the solvent evaporated at 50° C. (ambient pressure) without stirring. The vials containing the solid residues were dried in a vacuum oven at 50 C, 10^−2-10^−1 Torr, for 3 h before weighing again to determine the mass of solid that was dissolved in the supernatant (i.e. mg solid/mL solvent).
About 20 mg of compound was weighed into vials. Solvent was added in aliquots and stirred at the designated temperature until complete dissolution was observed. This measurement gave a solubility range.

[3] = Form stability at ambient conditions for one week (XRPD); assay type: physicochemical; settings: maleate
Excerpt: Some of the samples generated in the antisolvent crystallization experiments were mixtures of Pattern B, Pattern C, and Pattern D. These samples were left at ambient conditions for one week, then analyzed again by XRPD.
Pure Pattern B was generated in the antisolvent crystallization with MIBK and heptane. […] The solids were scraped from the XRPD plate and used for simultaneous TGA/DSC analysis. […] After the solids required for the TGA/DSC analysis were transferred to the pan, the remainder of the solids were re-pressed to the XRPD sample plate and analyzed again.

[4] = Solubility in simulated fluids and water; assay type: physicochemical; settings: 37° C., 30 min
Description: Calibration samples for solubility in simulated fluids were prepared with freebase Compound I.
Solubility in simulated fluids were studied with the mandelate and maleate solids. The simulated fluids FaSSIF (fasted-state intestinal), FaSSGF (fasted-state gastric), and FeSSIF (fed-state intestinal) were removed from the refrigerator, warmed to room temperature, and the pH of each was measured. Between 1.9 and 2.0 mg of each salt was weighed into four vials and 1 mL of each fluid was added, including water. Stir bars (10 mm) were added to the vials and the vials were stirred at 37° C. After 30 mi (mandelate samples) or 1 h (maleate samples), the pH of each solution was measured, then 400 μL of each was removed and syringe filtered with 0.45 µm syringe filters. Approximately 300 μL of the recovered filtrate was diluted 5× with diluent and injected for HPLC analysis. The remainder of the samples in the vials were allowed to stir overnight. After 24 h stirring at 37° C., samples were filtered and diluted as before, and injected for analysis.

[5] = Dynamic vapor sorption (DVS); assay type: physicochemical
Description: DVS was performed using a DVS Intrinsic 1. The sample (20-25 mg) was loaded into a sample pan, suspended from a microbalance and exposed to a humidified stream of nitrogen gas. The sample was held for a minimum of 5 min at each level and only progressed to the next humidity level if there was <0.002% change in weight between measurements (interval: 60 s) or 240 min had elapsed. The following program was used: • 1. Equilibration at 50% RH • 2. 50% to 2%. (50%, 40%, 30%, 20%, 10%, and 2%) • 3. 2% to 95% (2%, 10%, 20%, 30%, 40%, 50%, 60%, 70%, 80%, 90%, and 95%) • 4. 95% to 2% (95%, 80%, 70%, 60%, 50%, 40%, 30%, 20%, 10%, and 2%) • 5. 2% to 50% (2%, 10%, 20%, 30%, 40%, and 50%)

[6] = Stability of crystalline forms at 40° C. and 75% relative humidity (XRPD, HPLC purity)
Description: Approximately 10 mg of the Crystalline Pattern D of Compound I Maleate, 20 mg of the Crystalline Pattern C of Compound I Maleate, and 10 mg of the Crystalline Pattern E of Compound I Mandelate were weighed into open 4 mL vials that were placed into a 20 mL vial containing a saturated NaCl solution. The vial was sealed and kept at 40° C. for 7 days, creating an atmosphere at 75% relative humidity in the system. After 7 days, the materials were sampled and plated for XRPD analysis.
The stability test was repeated on Patterns C and D of Compound I Maleate for 11 days.

[7] = 40° C., 75% relative humidity, 7 days

CCOc1ccccc1-c1ccc(N2CCN(C(=O)C3(C(F)(F)F)CCC3)C[C@H]2CC)c(C(=O)N[C@@H]2CN3CCC2CC3)n1 [Compound I Maleate, N-[(3S)-1-azabicyclo[2.2.2]octan-3-yl]-6-(2-ethoxyphenyl)-3-[(2R)-2-ethyl-4-[1-(trifluoromethyl)-cyclobutanecarbonyl]piperazin-1-yl]pyridine-2-carboxamide maleate]
Mass gain in qualitative humidity exposure test ([1]; 80% RH overnight, approximately 10 mg): No detectable mass gain
solubility ([2]; EtOAc, 50° C., maleate): 34 mg/mL
solubility ([2]; EtOAc, RT, maleate): 21 mg/mL
solubility ([2]; EtOH, RT, maleate): >200 mg/mL
solubility ([2]; IPAc, 50° C., maleate): 13 mg/mL
solubility ([2]; IPAc, RT, maleate): 8 mg/mL
solubility ([2]; MEK, RT, maleate): >200 mg/mL
solubility ([2]; MIBK, 50° C., maleate): 71 mg/mL
solubility ([2]; MIBK, RT, maleate): 49 mg/mL
solubility ([2]; MeOH, RT, maleate): >200 mg/mL
solubility ([2]; MtBE, 50° C., maleate): 4 mg/mL
solubility ([2]; MtBE, RT, maleate): 4 mg/mL
solubility ([2]; THF, RT, maleate): >200 mg/mL
solubility ([2]; acetone, RT, maleate): >200 mg/mL
solubility ([2]; cyclohexane, 50 °C, organic solvent or mixture, thermodynamic from solid, cyclohexane, 50° C., read-out: Solubility): 3 mg/mL
solubility ([2]; cyclohexane, organic solvent or mixture, thermodynamic from solid, cyclohexane, RT, read-out: Solubility): < 3 mg/mL
solubility ([2]; n-heptane, 50° C., maleate): 3 mg/mL
solubility ([2]; n-heptane, RT, maleate): <3 mg/mL

CCOc1ccccc1-c1ccc(N2CCN(C(=O)C3(C(F)(F)F)CCC3)C[C@H]2CC)c(C(=O)N[C@@H]2CN3CCC2CC3)n1.O=C(O)/C=C\C(=O)O [Pattern B, N-[(3S)-1-azabicyclo[2.2.2]octan-3-yl]-6-(2-ethoxyphenyl)-3-[(2R)-2-ethyl-4-[1-(trifluoromethyl)-cyclobutanecarbonyl]piperazin-1-yl]pyridine-2-carboxamide maleate]
Form stability upon drying (XRPD) [1]: mostly converts to Pattern C
Form conversion by XRPD at ambient conditions [3]: converted to Pattern C; also recorded: some low intensity peaks associated with Pattern C

CCOc1ccccc1-c1ccc(N2CCN(C(=O)C3(C(F)(F)F)CCC3)C[C@H]2CC)c(C(=O)N[C@@H]2CN3CCC2CC3)n1 [Compound I, N-[(3S)-1-azabicyclo[2.2.2]octan-3-yl]-6-(2-ethoxyphenyl)-3-[(2R)-2-ethyl-4-[1-(trifluoromethyl)-cyclobutanecarbonyl]piperazin-1-yl]pyridine-2-carboxamide]
solubility ([2]; EtOAc, RT, listed as Amorphous free base): >500^a mg/mL
solubility ([2]; EtOH, RT, listed as Amorphous free base): >500^a mg/mL
solubility ([2]; IPA:water (1:1 vol.), aqueous with cosolvent or surfactant or cyclodextrin, thermodynamic from solid, IPA:water (1:1 vol.), RT, read-out: Solubility): 167 to 250 mg/mL (≈ 272 to 407 mM)
solubility ([2]; MIBK, RT, listed as Amorphous free base): >500^a mg/mL
solubility ([2]; MtBE, RT, listed as Amorphous free base): >500^a mg/mL
solubility ([2]; acetone, RT, listed as Amorphous free base): >500^a mg/mL
Solubility (in words) ([2]; all solvents tested except heptane and IPA:water (1:1 vol.)): freely soluble
Solubility (in words) ([2]; heptane): low solubility
solubility ([2]; n-heptane, RT, listed as Amorphous free base): <26 mg/mL
solubility ([2]; toluene, organic solvent or mixture, thermodynamic from solid, toluene, RT, read-out: Solubility): > 500 mg/mL

N-[(3S)-1-azabicyclo[2.2.2]octan-3-yl]-6-(2-ethoxyphenyl)-3-[(2R)-2-ethyl-4-[1-(trifluoromethyl)-cyclobutanecarbonyl]piperazin-1-yl]pyridine-2-carboxamide mandelate [mandelate Pattern E]
Stability after humidity exposure (XRPD, deliquescence) ([1]; >90% relative humidity overnight): no deliquescence or loss of crystallinity
Form stability upon drying (XRPD) [1]: stable
Sample pH ([4]; FaSSGF (initial pH 1.49)): 1.53
Sample pH ([4]; FaSSIF (initial pH 6.35)): 6.41
Sample pH ([4]; FeSSIF (initial pH 4.83)): 4.89
Hygroscopicity (in words) ([5]; DVS): moderately hygroscopic
Change by XRPD following the DVS analysis ([5]; after DVS from 2 to 95% RH): No change
Reversible mass gain (DVS) ([5]; from 2 to 95% relative humidity): 5.68 wt. %
Behaviour at high humidity ([5]; high humidity): began to convert to amorphous
Change by XRPD after storage [6, 7]: No visible change
Degradation by HPLC purity analysis after storage [6, 7]: no degradation
Stability on storage (in words) ([6]; over a week at 40° C. and 75% RH): stable
